The source of these data is ChEMBL document CHEMBL5096208, “Installation of Pargyline, a LSD1 Inhibitor, in the HDAC Inhibitory Template Culminated in the Identification of a Tractable Antiprostate Cancer Agent” (J Med Chem, 2021).

Molecules are shown by their SMILES. Active and inactive are the calls of the source.

Data set [1] deals with PC-3. Put plainly: Downregulation of LSD1 in human PC-3 cells at 1.25 to 10 uM incubated for 48 hrs by Western blot analysis. The settings on record: dose 1.25-10 µM. It is filed as functional, cell-based.
Data set [2] in a line: Metabolic stability in human hepatocyte assessed as parent compound remaining at 10 uM by LC-MS/MS analysis. The settings on record: hepatocytes, read-out: Stability. In kind it is ADME, cell-based.
Data set [3] is described as follows: Metabolic stability in Beagle dog hepatocyte assessed as half life at 10 uM by LC-MS/MS analysis. It is filed as ADME, cell-based, Canis lupus familiaris. The settings on record: hepatocytes.
Data set [4] can be described thus: Metabolic stability in Sprague-Dawley rat hepatocyte assessed as parent compound remaining at 10 uM by LC-MS/MS analysis. It is filed as ADME, cell-based. The note with it: hepatocytes, read-out: Stability.
Data set [5] deals with PC-3. Put plainly: Antiproliferative activity against human PC-3 cells assessed as cell growth inhibition at upto 10 uM incubated for 48 hrs by MTT assay. In kind it is functional, cell-based.
Data set [6] is described as follows: Metabolic stability in Sprague-Dawley rat hepatocyte assessed as half life at 10 uM by LC-MS/MS analysis. In kind it is ADME, cell-based. The settings on record: hepatocytes.
A further data set concerns the target Histone deacetylase 2 (Homo sapiens, UniProt Q92769). Briefly: Inhibition of human HDAC2 (379 to 382 residues) using RHKKAc as flurogenic substrate.
Data set [7] relates to DU-145. Briefly: Upregulation of acetyl-tubulin in human DU-145 cells at 0.625 to 5 uM by Western blot analysis. It is filed as functional, cell-based. The settings on record: dose 0.625-5 µM. For orientation: A western blot detects proteins with antibodies after separation by electrophoresis.
Data set [8] concerns DU-145. Put plainly: Induction of H3K4ME2 accumulation in human DU-145 cells at 0.5 to 10 uM incubated for 48 hrs by Western blot analysis. In kind it is functional, cell-based. The note with it: dose 0.5-10 µM.
The next data set has as its target Histone deacetylase 3 (Homo sapiens, UniProt O15379). Briefly: Inhibition of human HDAC3 (379 to 382 residues) using RHKKAc as flurogenic substrate.

Histone deacetylase 3, sequence (O15379 whole entry, the tested form may be a part): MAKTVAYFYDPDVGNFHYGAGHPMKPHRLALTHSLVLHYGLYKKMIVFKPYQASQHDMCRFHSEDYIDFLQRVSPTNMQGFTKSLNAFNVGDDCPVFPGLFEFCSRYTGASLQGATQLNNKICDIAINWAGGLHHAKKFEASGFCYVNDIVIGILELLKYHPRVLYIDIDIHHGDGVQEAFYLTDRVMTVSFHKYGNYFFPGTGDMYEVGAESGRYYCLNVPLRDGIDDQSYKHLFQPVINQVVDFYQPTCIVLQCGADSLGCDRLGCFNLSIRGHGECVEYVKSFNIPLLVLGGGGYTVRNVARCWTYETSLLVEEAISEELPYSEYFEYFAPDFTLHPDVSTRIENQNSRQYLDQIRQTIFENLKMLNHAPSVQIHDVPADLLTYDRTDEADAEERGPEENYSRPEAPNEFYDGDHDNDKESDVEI
Histone deacetylase 2, sequence (Q92769 whole entry, the tested form may be a part): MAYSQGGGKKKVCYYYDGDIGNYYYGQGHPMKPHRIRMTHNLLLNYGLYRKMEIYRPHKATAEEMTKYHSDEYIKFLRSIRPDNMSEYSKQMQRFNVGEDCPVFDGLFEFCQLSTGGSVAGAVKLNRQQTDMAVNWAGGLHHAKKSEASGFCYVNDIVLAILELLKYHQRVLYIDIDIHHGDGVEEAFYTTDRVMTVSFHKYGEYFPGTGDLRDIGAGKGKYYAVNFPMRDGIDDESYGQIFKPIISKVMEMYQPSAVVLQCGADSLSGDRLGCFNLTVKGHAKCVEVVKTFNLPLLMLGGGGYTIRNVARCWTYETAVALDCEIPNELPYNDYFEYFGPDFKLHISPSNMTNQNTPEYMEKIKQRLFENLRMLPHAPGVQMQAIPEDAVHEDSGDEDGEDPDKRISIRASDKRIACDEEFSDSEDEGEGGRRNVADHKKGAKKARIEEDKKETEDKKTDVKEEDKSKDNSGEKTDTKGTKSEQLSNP

A word on the half-life: it is the time needed for the level to fall by half in the phase considered. By IC50 is commonly meant the concentration needed to halve the response being measured. As for `C#CCN(C)Cc1cccc(NC(=O)CCCCCCC(=O)NO)c1`, the outcome with PC-3 [1], in the data set on PC-3 [5], with DU-145 [7] and in the data set with DU-145 [8] was Active. Besides, the remaining at 10 µM in [2] and in data set [4] was 100% in each case. The results for the half-life at 10 µM in data set [3] and in [6] were 3.61 h and 1.56 h, respectively. The concentration for half-maximal inhibition (IC50) amounted to 1540 nM at Histone deacetylase 2 and 133 nM on Histone deacetylase 3.
